Experiment [1] has as its target T1, DFsc (2A3H-DFsc), [DFsc-Zn(II)2] (synthetic construct, UniProt Z9QLD2D1S0, H107N).
T1 sequence (Z9QLD2D1S0 1-115 H107N): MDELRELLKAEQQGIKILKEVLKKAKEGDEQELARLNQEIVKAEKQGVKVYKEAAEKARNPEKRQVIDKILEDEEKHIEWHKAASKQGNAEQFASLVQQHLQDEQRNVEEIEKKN
Briefly: UV/vis. It counts as binding. Particulars: Zn(II)-bound form; bound as semiquinone derived from 4-t-butylcatechol.

In experiment [2] the target is T2, DFsc (2A3H-DFsc), [DFsc-Zn(II)2] (synthetic construct, UniProt Z9QLD2D1S0, H107A).
T2 sequence (Z9QLD2D1S0 1-115 H107A): T1 sequence (Z9QLD2D1S0 1-115 H107N) with N107A
Briefly: UV/vis. It counts as binding. Particulars: Zn(II)-bound form; bound as semiquinone derived from 4-t-butylcatechol.

Each structure is given as a SMILES string. Residue numbers refer to the chain shown, from its start.

As for `CC(C)(C)c1ccc(O)c(O)c1`, the UV/vis entry in experiment [1] and in experiment [2] was “The variants also form a 4-t-butylcatechol-derived SQ• complex” throughout.
